Data: patent US20210087159A1, “TETRAHYDROCANNABINOLIC- CA[…] DERIVATIVES AND USES THEREOF” (AL&AM […]., priority 2018, published 2021)

Key:
Assay type in all cases: cell-based
TNF-α = test: LPS induced cytokine release assay, TNF-α by ELISA in PBMCs; settings: human PBMCs; for TNF-α: 72 h; for change of TNF-α expression in LPS-treated cells: tested concentrations of 1 M and 10 M (so in the source)
Text: (§1) This study was aimed to test the effect of 12 compounds (THCA, Ia1, Ia5, Ia6, Ia9, Ia11, Ia15, Ia17, Ia24, Ia25, Ia27, and Ia28) on human peripheral blood mononuclear cells (PBMCs) challenged by lipopolysaccharide (LPS) through monitoring multiple inflammatory endpoints.
(§2) Blood samples were collected from healthy volunteers according to protocols that have been reviewed and approved by the Chempartner Institutional Ethic Committee (IEC) upon signing an Informed Consent Form (ICF).
(§3) Fresh PBMCs were isolated and seeded into 96-well plate, and diluted solutions of the tested compounds and 0.1 μg/mL LPS were then added (in triplicates). To serve as control, 3 wells with PBMCs only, 3 wells with 0.1 μg/mL LPS, and 2 wells with 1 μg/mL dexamethasone (Dex) and 0.1 μg/mL LPS were included. After 72 hours incubation, supernatant was collected for tumor necrosis factor-α (TNF-α) measurement by enzyme-linked immunosorbent assay (ELISA), and cell pellets were harvested for cell proliferation measurement by CellTiter-Glo® Luminescent Cell Viability Assay (CTG).
(§4) The human blood sample from an individual donor was diluted by the same volume of sterile phosphate buffered solution (PBS) and mixed sufficiently by gentle shake. 15 mL Lymphoprep™ medium was transferred into a new 50 mL centrifuge tube, and the diluted blood sample (30 mL) was then carefully added onto the surface of the medium, which consequently contained Ficoll 400 and blood in a volume ratio of 1:2. Four interfaces were observed after centrifugation, which are, from top to bottom, layers of plasma, mononuclear cells, Ficoll medium, and red blood cells (RBCs). Plasma was absorbed, and mononuclear cells were then transferred into another new sterile centrifuge tube. Then, sterile PBS buffer was added into the collected PBMCs for washing, at a volume ratio of 3:1. PBMCs were washed with 5-10 mL PBS twice before cell counting with cytometer. Cells were centrifuged at 350×g, for 10 min, at 20° C. with the acceleration (5) and deceleration (5) settings during the centrifugation. The cells were resuspended with RPMI 1640 complete medium (containing 10% FBS) for assay, and the density was adjusted with RPMI 1640 complete medium to the final concentration of 2E6 cells/mL. Cells suspension of the PBMCs (100 μL/well) were seeded into 96-well plate (#3903).
(§5) Diluted solutions of the tested compounds were prepared with RPMI 1640 complete medium according to the following layout. Compounds were prepared at 5-fold of concentration (50 μM), and then were diluted to the working concentration of 10 μM with RPMI 1640 complete medium and made 10-fold serially dilution (2 points). The diluted compounds (50 μL/well) were added to the indicated wells, and the plate was incubated at 37° C., 5% CO2, for 72 h.
(§6) LPS (0.1 μg/mL, 100 μL) was added into each well. Dex (1 μg/mL) was included as a positive control. Plate was incubated at 37° C., 5% CO2 for 72 h. Supernatant was collected to measure TNF-α by ELISA. Cell proliferation was detected by CTG.

[1] = test system: human peripheral blood mononuclear cells (PBMCs); test: Cell proliferation of LPS-challenged PBMCs by CellTiter-Glo (CTG); settings: human PBMCs
Text: as §1, §2, §3, §4, §5, §6

[2] = test system: T47D, breast ductal carcinoma; test: CellTiter-Glo cell viability assay, cancer cell cytotoxicity/anti-proliferation panel (Chempartner); settings: Table 5, T47D cells, 72 hours; for IC50: Homo sapiens, read-out: AbsIC50; for Inhibition %: 10 μM starting, 10-pt, 3-fold dilution
Procedure: In this study, the biological activity of certain compounds of the present invention on cancer cell cytotoxicity/anti-proliferation panel was tested using the CellTiter-Glo® cell viability assay. The compounds were dissolved in DMSO to make 10 mM solution.
The cell lines tested were all selected from the Chempartner's cell collection and included: Caco-2 ATCC colon adenocarcinoma; TE-6 RIKEN esophagus, carcinoma; PC-3 ATCC prostate adenocarcinoma; T47D, breast ductal carcinoma; U251, brain human glioma; A549, lung carcinoma; OMP-2, multiple myeloma; SK-HEP-1, liver adenocarcinoma; PANC-1, pancreas ductal carcinoma; AsPC-1, pancreas, ductal carcinoma; and U-87 MG, brain glioblastoma.
For the assays described herein, absolute inhibition of cells growth (%) and absolute IC50 (Abs IC50; […]) were used to derive a value that can be used to compare results within and across runs in the same assay, as well as between different assays.
• a. Prepare complete medium: Add FBS and appropriate additives according to the information sheet provided by the vendor. Mix gently. • b. Check the cell name and complete medium and passage number marked on the flask. For adherent cell lines, refer to c to k. For suspension cell lines, refer to g to k. • c. Remove and discard culture medium using a vacuum pump. • d. Briefly rinse the cell layer with 0.25% (w/v) trypsin-0.038% (w/v) EDTA solution to remove all traces of serum that contains trypsin inhibitor. • e. Add 3.0 ml of trypsin-EDTA solution to flask and observe cells under an inverted microscope until cell layer is dispersed. • f. Add 8.0 ml of complete growth medium and aspirate cells by gently pipetting. • g. Transfer the cell suspension to a centrifuge tube and centrifuge at 800-1000 rpm for 3-5 minutes. • h. Discard the supernatant using a vacuum pump. • i. Add appropriate volume of complete medium. Suspend the cell pellet by gently pipetting. • j. Count the cell numbers with Vi-cell XR and adjust cells to appropriate density. • k. Add 100 μL of cell suspension to 96-well opaque-walled clear bottom plates according to the planned plate layout and place the plates in the CO2 incubator overnight. • l. Plate layout:
• Plate preparation of testing articles. 10 mM stock solution of each one of the compounds (provided as powder) was prepared in DMSO. […] 0.5 μL of each of the diluted compounds was transferred to the wells containing 100 μL of the culture medium. The total dilution was 200 fold. Cells were incubated with the compounds for 72 hours at 5% CO2, 37° C.
• Thaw the CellTiter-Glo buffer and equilibrate to room temperature prior to use. • Equilibrate the lyophilized CellTiter-Glo substrate to room temperature prior to use. • Transfer the appropriate volume of CellTiter-Glo buffer into the amber bottle containing CellTiter-Glo substrate to reconstitute the lyophilized enzyme/substrate mixture. This forms the CellTiter-Glo reagent. • Mix by gently vortexing, swirling or by inverting the contents to obtain a homogeneous solution. The CellTiter-Glo substrate should go into solution easily in less than one minute.
• Observe the cell morphology under an inverted microscope after corresponding treatment. • Equilibrate the plate and its contents to room temperature for approximately 30 minutes. • Add 100 μL of CellTiter-Glo reagent to the assay plate by Multidrop Combi instrument. • Mix contents for 10 minutes on an orbital shaker to induce cell lysis. • Allow the plate to incubate at room temperature for 10 minutes to stabilize luminescent signal. • Paste the clear bottom with white back seal and record luminescence with Enspire. The settings should be: Luminescence, measurement time 0.1 ms.
Inhibition (%) and absolute IC50 (μM) of each compound was calculated with XLFit curve fitting software that is compatible to Activity Base.

[3] = compound 1 μM + 0.1 μg/mL LPS, ELISA (LPS control 18.16)
[4] = compound 10 μM + 0.1 μg/mL LPS, ELISA (LPS control 18.16)
[5] = compound 1 μM + 0.1 μg/mL LPS, 72 h (LPS control 84.50)
[6] = compound 10 μM + 0.1 μg/mL LPS, 72 h (LPS control 84.50)

C[C@@H]1C[C@H]2[C@@H]3CCC4=CC(=O)C=C[C@]4(C)[C@@]3(F)[C@@H](O)C[C@]2(C)[C@@]1(O)C(=O)CO [Dex, dexamethasone, reference compound]
decrease of the level of TNF-α as compared to LPS-treated cells (TNF-α; 1 μg/mL Dex): 2.5 folds
TNF-α (TNF-α; 1 μg/ml Dex + 0.1 μg/ml LPS + 0.1% DMSO): 5.38 pg/mL
CTG signal ([1]; 1 μg/ml Dex + 0.1 μg/ml LPS + 0.1% DMSO, 72 h): 65.51 10^4

CCCCCc1cc2c(c(O)c1C(=O)NCCOC)[C@@H]1C=C(C)CC[C@H]1C(C)(C)O2 [Ia4, (6aR,0aR)-1-hydroxy-N-(2-methoxyethyl)-6,6,9-trimethyl-3-pentyl-6a,7,8,10a-tetrahydro-6H-benzo[c]chromene-2-carboxamide]
IC50 [2]: > 10 µM
Inhibition % [2]: 3.13%

CCCCCc1cc2c(c(O)c1C(=O)NCC1CC1)[C@@H]1C=C(C)CC[C@H]1C(C)(C)O2 [Ia5, (6aR,0aR)—N-(cyclopropylmethyl)-1-hydroxy-6,6,9-trimethyl-3-pentyl-6a,7,8,10a-tetrahydro-6H-benzo[c]chromene-2-carboxamide]
TNF-α (TNF-α; [3]): 19.60 pg/mL
TNF-α (TNF-α; [4]): 32.33 pg/mL
change of TNF-α expression in LPS-treated cells (TNF-α): increased TNF-α expression
IC50 [2]: > 10 µM
Inhibition % [2]: 7.89%
CTG signal [1, 5]: 74.73 10^4
CTG signal [1, 6]: 76.26 10^4

CCCCCc1cc2c(c(O)c1CNCCCN1CCOCC1)[C@@H]1C=C(C)CC[C@H]1C(C)(C)O2 [Ia21, (6aR,10aR)-6,6,9-trimethyl-2-(((3-morpholinopropyl)amino)methyl)-3-pentyl-6a,7,8,10a-tetrahydro-6H-benzo[c]chromen-1-ol]
IC50 [2]: > 10 µM
Inhibition % [2]: 21.68%

CCCCCc1cc2c(c(O)c1C(=O)Nc1ccc(N3CCOCC3)cc1)[C@@H]1C=C(C)CC[C@H]1C(C)(C)O2 [Ia17, (6aR,0aR)-1-hydroxy-6,6,9-trimethyl-N-(4-morpholinophenyl)-3-pentyl-6a,7,8,10a-tetrahydro-6H-benzo[c]chromene-2-carboxamide]
TNF-α (TNF-α; [3]): 16.44 pg/mL
TNF-α (TNF-α; [4]): 24.59 pg/mL
change of TNF-α expression in LPS-treated cells (TNF-α): increased TNF-α expression
CTG signal [1, 5]: 74.83 10^4
CTG signal [1, 6]: 72.61 10^4

CCCCCc1cc2c(c(O)c1-c1nnc(C)o1)[C@@H]1C=C(C)CC[C@H]1C(C)(C)O2 [Ia24, (6aR,0aR)-6,6,9-Trimethyl-2-(5-methyl-1,3,4-oxadiazol-2-yl)-3-pentyl-6a,7,8,10a-tetrahydro-6H-benzo[c]chromen-1-ol]
TNF-α (TNF-α; [3]): 32.33 pg/mL
TNF-α (TNF-α; [4]): 28.53 pg/mL
change of TNF-α expression in LPS-treated cells (TNF-α): decreased TNF-α expression
CTG signal [1, 5]: 77.88 10^4
CTG signal [1, 6]: 62.41 10^4

CCCCCc1cc2c(c(O)c1C(=O)S)[C@@H]1C=C(C)CC[C@H]1C(C)(C)O2 [Ia25, (6aR,0aR)-1-hydroxy-6,6,9-trimethyl-3-pentyl-6a,7,8,10a-tetrahydro-6H-benzo[c]chromene-2-carbothioic S-acid]
TNF-α (TNF-α; [3]): 42.50 pg/mL
TNF-α (TNF-α; [4]): 36.82 pg/mL
change of TNF-α expression in LPS-treated cells (TNF-α): decreased TNF-α expression
CTG signal [1, 5]: 83.27 10^4
CTG signal [1, 6]: 75.29 10^4

CCCCCc1cc2c(c(O)c1C(=O)NCc1ccncc1)[C@@H]1C=C(C)CC[C@H]1C(C)(C)O2 [Ia11, 1-hydroxy-6,6,9-trimethyl-3-pentyl-N-(pyridin-4-ylmethyl)-6a,7,8,10a-tetrahydro-6H-benzo[c]chromene-2-carboxamide]
TNF-α (TNF-α; [3]): 28.40 pg/mL
TNF-α (TNF-α; [4]): 15.39 pg/mL
change of TNF-α expression in LPS-treated cells (TNF-α): decreased TNF-α expression
IC50 [2]: > 10 µM
Inhibition % [2]: 15.80%
CTG signal [1, 5]: 72.49 10^4
CTG signal [1, 6]: 74.91 10^4

CCCCCc1cc2c(c(O)c1C(N)=O)[C@@H]1C=C(C)CC[C@H]1C(C)(C)O2 [Ia1, (6aR,0aR)-1-hydroxy-6,6,9-trimethyl-3-pentyl-6a,7,8,10a-tetrahydro-6H-benzo[c]chromene-2-carboxamide]
TNF-α (TNF-α; [3]): 16.30 pg/mL
TNF-α (TNF-α; [4]): 11.85 pg/mL
CTG signal [1, 5]: 74.10 10^4
CTG signal [1, 6]: 70.03 10^4
